# Experimental data published in patent US11638427B2, “Methods and compositions for altering secondary metabolites in plants” (Impello Biosciences, Inc, priority 2020, dated 2023).
# Assays:
# hemp plants Cv. Zephyr = experiment: Weekly MDJ foliar spray at four concentrations, cannabinoids and terpenes; type: in vivo, Cannabis spp.
# Procedure: To investigate the effect of different concentrations of MDJ, four different concentrations of MDJ was applied to hemp plants (n=5 per treatment, Cv.: Zephyr, CBDRx) weekly via foliar spray at the following concentrations: 1 mM, 4.25 mM, 7.5 mM, 10 mM. Treatment concentrations were prepared as described above and one drop of TWEEN®-20 (VWR, CAS No.: 9005-64-5) was added to treatments to serve as a surfactant. Treatments were applied weekly during both the vegetative (2 treatments) and flowering (6 treatments) developmental stages using a SPRAYMASTER Chemical Sprayer (King of Prussia, Pa.) (8 treatments total). Plants were grown under a total of 12 Boost (Thrive Agritech, NY) 130-watt LED lights set to 18L: 6D photoperiod during the vegetative phase (2 weeks) followed by a 12L: 12D photoperiod during the flowering phase (6 weeks), using the same lighting. Untreated controls served as a comparison to see alterations in metabolite synthesis.
# Diaporthe rudis = experiment: Mold growth on jasmonate-infused plates, mold 3 isolated from avocado; type: cell-based; conditions: various concentrations in plates
# Procedure: (§1) MDJ (TCI, CAS No.: 24851-98-7) and CJ were infused into potato dextrose agar (PDA, VWR Cat No.: 90003-494) petri dishes (100×15 mm VWR, Cat No: 25384-094) at concentrations ranging from 1 mM, 4.25 mM, and 10 mM. Each treatment was prepared using a technical grade stock solution of pure chemical (CJ or MDJ) diluted with TWEEN®-20 (VWR, CAS No.: […]). Culturable oyster mushroom and seedling mold served to create fungal mycelial plugs using a sterile 1 mL pipette tip (Eppendorf, Cat No.: 022491458) held upside down. The tips were used to make circle excisions (i.e., fungal plugs) from a mycelial mat grown on PDA with no biochemical infusions. Fungal pugs were then transferred to PDA infused with varying concentrations of CJ or MDJ, and control plates (no CJ or MDJ infusion) to monitor fungal growth at room temperature over time.
# (§2) Based on the above results in Cannabis spp., additional fungi from various crops was sampled and tested. Plates comprising various concentrations of MDJ or MJ were prepared as described above.
# [1] = tested on: Pencicillium sclerotigenum; experiment: Mold growth on jasmonate-infused plates, mold isolated from sweet potato; type: cell-based; conditions: 1 mM, 5 mM, 10 mM, or 20 mM in plates
# Procedure: as §1, §2
# Penicillium spp. = experiment: Mold growth on jasmonate-infused plates, mold isolated from pineapple; type: cell-based; conditions: 5 mM, 10 mM, or 20 mM in plates
# Procedure: as §1, §2
# strawberries = experiment: Fruit MDJ dips, 2 weeks observation; type: in vivo
# [2] = tested on: hemp varietal 'Bialobreszkie'; experiment: MeJA foliar spray on fiber hemp, non-targeted metabolomic analysis (UPLC-MS, GC-MS); type: in vivo, Cannabis spp.
# Procedure: The efficacy and effectiveness of an eliciting composition and methods of use to alter secondary metabolite production were tested in a controlled environment with a commercial certified hemp varietal ‘Bialobreszkie’ (Bija Hemp, Denver, Colo., USA). […] This is in comparison with high metabolite-producing hemp varieties that typically yield greater than 10% by weight total cannabinoids.
# A non-targeted semi-quantitative metabolomic analysis was conducted to provide relative values for each detected analyte (i.e., compound) rather than absolute quantification, but with much greater detection limits than typical quantitative analysis provides. Additionally, the non-targeted nature allows essentially every compound that is present in the sample to be recorded and scored relative, providing a picture of the effect that each treatment has on the entire metabolome of the plant rather than only a snapshot of a few metabolites.
# One hundred and forty-four (144) ‘Bialobreszkie’ variety hemp seeds were surface sterilized in a 2% NaOCI solution for 5 minutes and primed for 12 hours in a 1:30 aqueous solution of TRIBUS® Original (a commercial plant growth promoting bacterial consortia) contained in a 50 mL centrifuge tube and placed on an orbital shaker at 80 rpm, then hand sewn into two 72-cell trays filled with commercial coco coir (Canna Gardening, NL). Of the 144 seeds, 112 germinated well and were selected for use in the trial. After two weeks of development in seedling trays, all 112 plants were transplanted into 4” square plastic pots filled with pure coco coir media and watered-in with a 4-20-39 fertilizer supplemented with calcium nitrate, magnesium sulfate, and TRIBUS® beneficial bacteria at a standardized rate. At the time of transplant, all plants were transitioned into the flowering stage by manipulating the photoperiod to a 12-hour light/12-hour dark schedule per 24-hour day.
# Plants were transplanted successively without regard to their size or physical attributes on Apr. 20, 2019. The square pots were arranged in an […] grid on a 4′×8′ black plastic bench under two×1000-watt DE-HPS lamps (Gavita International BV). Each pot was numbered in numerical order, row by row. After all plants/pots were labelled, a research randomizer tool (randomizer.org) was used to randomly generate 8 groups with 14 unique numbers in each group, ranging from 1-112.
# Treatment groups differed only in the frequency and timing of applications. Chemical composition of the elicitor formula remained identical between all treatment groups and consisted of a 7.5 mM methyljasmonate (MeJA, technical grade, TCI America) active ingredient applied in an aqueous spray consisting of reverse-osmosis purified water, supplemented only with 0.1% v/v polysorbate-20 (TWEEN®-20, reagent grade, VWR) as an emulsifier to support oil-in-water stability. […] Treatment groups were defined as follows: […]
# All plants receiving treatments were sprayed-to-drip with each application to ensure sufficient coverage. Treatments were made to all treatment plants during daylight hours but out of direct light. Plants were temporarily removed from the growing bench for treatment applications in order to prevent overspray of the treatment onto other plants in the experiment. In such instances, plants were returned to the growing bench immediately after the foliage had dried. Plants were cultivated under identical and typical growing conditions for 47 days, then whole plants were harvested successively and within one hour of each other, labeled with their corresponding plant number, and hung upside down in a well-ventilated room and allowed to dry. Loss of samples occurred either from plants dying during the experiment or insufficient flower set. All other plants in the experiment were approximately the same size and had similar numbers and size of flowers.
# Each of the 8 groups (7 treatment and 1 control) began the trial with 14 plants. 109 of 112 samples were run in the assay. […]
# [3] = all tested concentrations (1, 4.25, 7.5, 10 mM) weekly foliar spray vs untreated controls
# [4] = 7.5 mM foliar spray, of the 597
structure (smiles),measurement,setting,value
"CCCCCC1C(=O)CCC1CC(=O)OC (stereo not drawn) [MDJ, methyl dihydrojasmonate]",CBDA,hemp plants Cv. Zephyr; [3],significantly increased
same,CBGA,hemp plants Cv. Zephyr; [3],significantly increased
same,THCA,hemp plants Cv. Zephyr; [3],significantly increased
same,Total CBD,hemp plants Cv. Zephyr; [3],significantly increased
same,Total CBG,hemp plants Cv. Zephyr; [3],significantly increased
same,Total cannabinoids,hemp plants Cv. Zephyr; [3],significantly increased
same,several terpenes,hemp plants Cv. Zephyr; weekly foliar spray 1-10 mM,altered
same,CBL,"hemp plants Cv. Zephyr; weekly foliar spray, CBL not detected at all in the control samples",detectable levels
same,growth of mold isolated from avocado (mold 3),Diaporthe rudis,effective at preventing the growth
same,growth of mold isolated from sweet potato,[1],effective at preventing the growth
same,growth of mold isolated from pineapple,Penicillium spp.,effective at preventing the growth
same,mold,strawberries; dip 1 M,prohibited mold for two weeks
same,mold,"strawberries; dip 5, 10, 20 mM and control",mold in all groups after one week
"CC/C=C\C[C@H]1C(=O)CC[C@@H]1CC(=O)OC [MeJA, Methyl Jasmonate]",non-volatile hemp metabolome compared to the Control group (UPLC-MS),"[2]; 7.5 mM applied every 7, 14 or 28 days, or only once 72 hours prior to harvest",substantially altered
same,endogenous levels of jasmonate derivatives,[2]; 7.5 mM exogenous foliar application,increase endogenous levels of numerous jasmonate derivaties
same,significantly altered compounds not annotated,[2]; [4],466
same,significantly altered compounds putatively of superclass Alkaloids and derivatives,[2]; [4],5
same,significantly altered compounds putatively of superclass Benzenoids,[2]; [4],5
same,significantly altered compounds putatively of superclass Lipid or Lipid like,[2]; [4],78
same,significantly altered compounds putatively of superclass Organic acids and derivatives,[2]; [4],1
same,significantly altered compounds putatively of superclass Organic nitrogen compounds,[2]; [4],1
same,significantly altered compounds putatively of superclass Organic oxygen compounds,[2]; [4],9
same,significantly altered compounds putatively of superclass Organoheterocyclic compounds,[2]; [4],10
same,significantly altered compounds putatively of superclass Phenylpropanoids and polyketides,[2]; [4],14
same,non-volatile compounds significantly (p<0.05) altered by one or more treatment groups,"[2]; 7.5 mM foliar spray, of the 2,000+ compounds detected via UPLC-TOF",597
same,analytes with significantly altered relative abundance compared to the control group,"[2]; Treatment 1: 7.5 mM, one application every 7 days from first day of flowering",551
same,analytes with significantly altered relative abundance compared to the control group,"[2]; Treatment 2: 7.5 mM, one application every 14 days from first day of flowering",497
same,analytes with significantly altered relative abundance compared to the control group,"[2]; Treatment 3: 7.5 mM, one application every 28 days from first day of flowering",41
same,analytes with significantly altered relative abundance compared to the control group,"[2]; Treatment 4: 7.5 mM, only one application on the first day of flowering",did not significantly altered the relative abundance of any analytes
same,analytes with significantly altered relative abundance compared to the control group,"[2]; Treatment 5: 7.5 mM, only one application on the 30th day of flowering",4
same,analytes with significantly altered relative abundance compared to the control group,"[2]; Treatment 6: 7.5 mM, only one application 72 hours prior to harvest",399
same,analytes with significantly altered relative abundance compared to the control group,"[2]; Treatment 7: 7.5 mM, only one application 24 hours prior to harvest",216
same,growth of mold isolated from avocado (mold 3),Diaporthe rudis,effective at preventing the growth
